Like-named read-outs stand apart in the source and are kept apart here.
Columns and labels:
MYB mRNA = experiment: RT-qPCR splicing assay, MYB mRNA canonical (CJ) and alternative (AJ) junction; assay type: cell-based, human; details: Homo sapiens; for AC50: MYB alternative junction mRNA, read-out: MYB AJ (increase in AJ mRNA, AC50)
Outline: (§1)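 A673 or K562 cells treated 24 h at 37 °C with an 11-point 3-fold dilution series (top 10 uM, DMSO ≤0.25%). Lysates went directly to one-step RT-qPCR quantifying canonical (CJ) and alternative-exon (AJ) junctions, normalized to GAPDH, GUSB or PPIA. Values from ΔΔCt versus DMSO, RQ = 2^(−ΔΔCt), expressed as percentage response.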

SMN2 mRNA = experiment: RT-qPCR splicing assay, SMN2 mRNA; assay type: cell-based, human; details: Homo sapiens, canonical junction qPCR panel, Table 4; read-out: SMN2 IC50 (decrease in CJ mRNA levels)
Outline: as §1

MYB = experiment: HiBiT protein abundance assay, MYB (K562 HiBiT knock-in); assay type: cell-based, human; details: HiBiT knock-in K562 cells, 24 hours, top dose 10 μM
Outline: (§2)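 Endogenously HiBiT-tagged K562 lines were treated for 24 h at 37 °C with 10-point 3-fold dilutions (top 10 μM final, DMSO ≤0.25%). Lytic LgBiT complementation luminescence was normalized between unmodified K562 (PC) and DMSO-treated tagged cells (NC); IC50 was interpolated at 50% from a four-parameter logistic fit.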

HTT = experiment: HiBiT protein abundance assay, HTT (K562 HiBiT knock-in); assay type: cell-based, human; details: HiBiT knock-in K562 cells, 24 hours, top dose 10 μM
Outline: as §2

Target C = experiment: HiBiT protein abundance assay, Target C (K562 HiBiT knock-in); assay type: cell-based, human; details: HiBiT knock-in K562 cells, 24 hours, top dose 10 μM
Outline: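 K562 HiBiT knock-in cells (10000/well) were treated 24 h at 37° C with a 10-point 3-fold dilution series (top 10 μM final, ≤0.25% DMSO). HiBiT luminescence was read after lytic LgBiT detection. Percent response used unmodified K562 and DMSO-treated knock-in controls, and IC50 came from a four-parameter fit at 50% of untreated.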

K562 cells = experiment: Cell Titer Glo 2.0 cell viability (toxicity) assay, K562; details: 500 cells/well, 72 hours
[1] = MYB canonical junction mRNA, RT-qPCR, read-out: MYB CJ (decrease in CJ mRNA levels, IC50)
[2] = canonical junction qPCR panel, Table 4, read-out: MYB IC50 (decrease in CJ mRNA levels)

Row | Structure (SMILES) | AC50 (MYB mRNA; RT-qPCR) [nM] | IC50 (MYB mRNA; [1]) [nM] | IC50 (MYB mRNA; [2]) [nM] | IC50 (SMN2 mRNA) [nM] | IC50 (MYB) [nM] | IC50 (HTT) [nM] | IC50 (Target C) [nM] | Effect of Exemplary Compounds on Cell Viability, K562 (K562 cells)
1 | Cc1nc2c(C)c(O)c(-c3ccc4nc(N5CC[C@H](NC6(C)CC6)C5)ccc4n3)cc2o1 (single isomer, unassigned) [Compound 311] | 100 to 1000 | 100 to 1000 | 100 to 1000 | < 100 | 100 to 1000 | < 100 | < 100 | C (C represents 1000-9999 nM)
2 | Cc1nc2c(C)c(O)c(-c3ccc4nc(N5CC[C@@H](NC(C)C)C5)ccc4n3)cc2o1 (single isomer, unassigned) [Compound 313] | < 100 | < 100 | < 100 | < 100 | < 100 | < 100 | < 100 | A (A represents <100 nM)
3 | Cc1nc2c(C)c(O)c(-c3ccc4nc(N5CC[C@H](NC(C)C)C5)ccc4n3)cc2o1 (single isomer, unassigned) [Compound 314] | < 100 | < 100 | < 100 | < 100 | < 100 | < 100 | < 100 | A (A represents <100 nM)
4 | Cn1cc2cc(-c3ccc4nc(N5CC[C@@H](NC6CCC6)C5)ccc4n3)c(O)c(F)c2n1 (single isomer, unassigned) [Compound 316] | < 100 | < 100 | < 100 | < 100 | < 100 | < 100 | < 100 | A (A represents <100 nM)
5 | Cn1cc2cc(-c3ccc4nc(N5CC[C@H](NC6CCC6)C5)ccc4n3)c(O)c(F)c2n1 (single isomer, unassigned) [Compound 317] | < 100 | < 100 | < 100 | < 100 | < 100 | < 100 | < 100 | A (A represents <100 nM)
6 | Cc1c(O)c(-c2ccc3nc(N4CC[C@@H](NC(C)C)C4)ccc3n2)cc2cn(C)nc12 (single isomer, unassigned) [Compound 319] | < 100 | < 100 | < 100 | < 100 | < 100 | < 100 | < 100 | A (A represents <100 nM)
7 | Cc1c(O)c(-c2ccc3nc(N4CC[C@H](NCC5CC5)C4)ccc3n2)cc2cn(C)nc12 (single isomer, unassigned) [Compound 321] | < 100 | < 100 | < 100 | < 100 | < 100 | < 100 | < 100 | B (B represents 100-1000 nM)
8 | Cc1c(O)c(-c2ccc3nc(N4CC[C@@H](NCC5CC5)C4)ccc3n2)cc2cn(C)nc12 (single isomer, unassigned) [Compound 322] | < 100 | < 100 | < 100 | < 100 | < 100 | < 100 | < 100 | B (B represents 100-1000 nM)
9 | Cc1nc2c(F)c(O)c(-c3ccc4nc(N5CC[C@@H](NCC6CC6)C5)ccc4n3)cc2o1 (single isomer, unassigned) [Compound 323] | < 100 | < 100 | < 100 | < 100 | < 100 | < 100 | < 100 | A (A represents <100 nM)
10 | Cc1nc2c(F)c(O)c(-c3ccc4nc(N5CC[C@H](NCC6CC6)C5)ccc4n3)cc2o1 (single isomer, unassigned) [Compound 324] | < 100 | < 100 | < 100 | < 100 | < 100 | < 100 | < 100 | A (A represents <100 nM)
11 | Cc1nc2c(F)c(O)c(-c3ccc4nc(N5CC[C@@H](NC(C)C)C5)ccc4n3)cc2o1 (single isomer, unassigned) [Compound 329] | < 100 | < 100 | < 100 | < 100 | < 100 | < 100 | < 100 | A (A represents <100 nM)
12 | Cc1nc2c(F)c(O)c(-c3ccc4nc(N5CC[C@H](NC(C)C)C5)ccc4n3)cc2o1 (single isomer, unassigned) [Compound 330] | < 100 | < 100 | < 100 | < 100 | < 100 | < 100 | < 100 | A (A represents <100 nM)
13 | Cn1cc2cc(-c3ccc4nc(N5CC[C@H](N[C@H]6C[C@H](F)C6)C5)ccc4n3)c(O)c(F)c2n1 (single isomer, unassigned) [Compound 347] | < 100 | < 100 | < 100 | < 100 | < 100 | < 100 | < 100 | A (A represents <100 nM)
14 | Cc1nc2cc(O)c(-c3ccc4nc(N5CC[C@@H](N[C@H]6C[C@H](F)C6)C5)ccc4n3)cc2o1 (single isomer, unassigned) [Compound 348] | < 100 | < 100 | < 100 | < 100 | < 100 | < 100 | 100 to 1000 | C (C represents 1000-9999 nM)
15 | Cn1cc2cc(-c3ccc4nc(N5CC[C@@H](N[C@H]6C[C@H](F)C6)C5)ccc4n3)c(O)c(F)c2n1 (single isomer, unassigned) [Compound 349] | < 100 | < 100 | < 100 | < 100 | < 100 | < 100 | < 100 | B (B represents 100-1000 nM)
16 | Cc1nc2c(C)c(O)c(-c3ccc4nc(N5CC[C@H](N[C@H]6C[C@H](F)C6)C5)ccc4n3)cc2o1 (single isomer, unassigned) [Compound 351] | < 100 | < 100 | < 100 | < 100 | < 100 | < 100 | < 100 | B (B represents 100-1000 nM)
17 | Cc1nc2c(C)c(O)c(-c3ccc4nc(N5CC[C@@H](N[C@H]6C[C@H](F)C6)C5)ccc4n3)cc2o1 (single isomer, unassigned) [Compound 352] | < 100 | < 100 | < 100 | < 100 | < 100 | < 100 | < 100 | B (B represents 100-1000 nM)
18 | Cc1nc2c(F)c(O)c(-c3ccc4nc(N5CC[C@@H](NC6(C)CC6)C5)ccc4n3)cc2o1 (stereo in doubt) [Compound 326, 4-fluoro-2-methyl-6-{6-[(3 S)-3-[(1-methylcyclopropyl)amino]pyrrolidin-1-yl]-1,5-naphthyridin-2-yl}-1,3-benzoxazol-5-ol] | < 100 | < 100 | < 100 | < 100 | < 100 | < 100 | < 100 | A (A represents <100 nM)
